# Measured values: patent US20020018808A1, “Vaccines against sterols” (priority 1990, published 2002)
# What was measured:
# [1] = ELISA of antisera from mice immunized with sterol-containing liposomes; format: in vivo, BALB/c mice
# Method: Accordingly, the following study is designed to assess the immunogenicity of different cholesterol or sterol analogs for use in a vaccine to prevent hyper-cholesterolemia. Briefly summarized, several sterols such as cholesterol, vitamin D2, cholesteryl oleate, cholesteryl myristate, 4-cholesten-3-one, and phosphatidylcholesterol (17β-Linkage) and (3β-Linkage), are incorporated into liposomes containing DPMC (1.8), DMPG (0.2), Chol (1.5) (mol/mol) and lipid A (25 to 200 μg/mol, preferably 25 μg/mol phospholipid) so that the phospholipid concentration remains constant. These liposomes are inoculated into BALB/c mice i.p. at day 0 and day 14. Mice are bled at day 14 and day 21 and antibodies specific for the antigen are assessed by ELISA using the antigen itself or crystalline cholesterol.
# Multilamellar vesicles (“MLV”) are produced by aliquotting DMPC:DMPG:Cholesterol, 9:1:7.5 (mol/mol), and lipid A at 25 to 200 μg/Imol phospholipid into a round bottom flask. The mixture is rotary evaporated, desiccated, and hydrated in sterile, deionized water. Lipids are lyophilized and reconstituted in PBS to 10 mM with respect to phospholipids and assayed for total phosphorous.
# Male BALB/c mice, 6-8 weeks old, are bled and then immunized with 0.1 ml liposomes containing 1 μmol total phospholipid and 25-200 μg monophosphoryl lipid A ip. At 14 day intervals, mice are bled and sera collected. […]
# [2] = Complement-dependent immune lysis assay of antisera (glucose release from liposomes); set-up: species or system BALB/c mice
# Method: This assay measures antibody-mediated, complement-dependent release of encapsulated glucose from liposomes. Released glucose is measured spectrophotometrically using a Tris-buffered assay reagent containing hexokinase, glucose-6-phosphate dehydrogenase, ATP, and NADP. This particular assay is a measurement of antibody functional activity, rather than particle (antibody) detection.
# In addition, the antisera from mice vaccinated with phosphatidylcholesterol could detect cholesterol present in liposomes containing 43% cholesterol as well as 71% cholesterol, and were equally as active against liposomes containing phosphatidylcholesterol in a complement-dependent immune lysis assay. […] In the above antibody-dependent immune lysis assays, a release greater than 5% indicates a positive reaction.
# The test liposomes contained or lacked 5 mol % phosphatidylcholesterol. The antisera were tested using a complement-dependent immune lysis assay, wherein a release greater than 5% indicated a positive reaction.
Structure (SMILES),"Antibody isotype induced ([1]; mice, detected by ELISA (FIG. 8))",Reactivity of generated antibody ([1]; compound of Example VI in liposomes),"Glucose release of test liposomes ([2]; immune lysis assay, liposomes composed of 5% phosphatidylcholesterol (17β-Linkage))",Liposome integrity in antibody-mediated immune lysis assay ([2]; more than 5 mol % phosphatidylcholesterol in liposomes containing 43 mol % cholesterol)
CC(C)CCC[C@@H](C)[C@H]1CC[C@H]2[C@@H]3CC=C4C[C@@H](O)CC[C@]4(C)[C@H]3CC[C@]12C [cholesterol],induce primarily IgM,–,–,–
"CCCCCCCCCCCCCC(=O)OCC(COP(=O)(O)OCCNC(=O)[C@H]1CC[C@H]2[C@@H]3CC=C4C[C@@H](O)CC[C@]4(C)[C@H]3CC[C@]12C)OC(=O)CCCCCCCCCCCCC (stereo partly drawn) [phosphatidylcholesterol (17β-Linkage), N-(5-Androsten-3β-OL-17β-amido) dimyristoylphosphatidylethanolamine]",–,"IgG antibody that reacts with crystalline cholesterol, 43% cholesterol liposomes, and 71% liposomes",glucose release equivalent to liposomes containing 43% and 71% cholesterol,leaky liposomes
